Molecular target: T1, human cathepsin K (Homo sapiens, UniProt P43235)
T1 construct: The proform of cathepsin K was converted to mature cathepsin K by brief exposure to pH 4; made in house; host or cells: baculovirus; Trichoplusia ni High Five cells (virus raised in Sf-9)
T1 sequence (P43235 115-329): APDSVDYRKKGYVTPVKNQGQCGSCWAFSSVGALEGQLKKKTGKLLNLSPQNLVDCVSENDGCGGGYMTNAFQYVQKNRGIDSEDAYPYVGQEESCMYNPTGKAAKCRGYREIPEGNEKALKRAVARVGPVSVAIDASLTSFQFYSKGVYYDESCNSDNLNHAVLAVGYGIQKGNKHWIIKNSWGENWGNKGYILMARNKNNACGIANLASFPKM
Assay: Cathepsin K inhibition assay, fluorogenic substrate Cbz-Phe-Arg-AMC, progress curve method
Format: biochemical
Conditions: Table 1; human recombinant enzyme, pH 5.5, 30° C., 10 μM substrate; read-out: hCat K Ki
Method: All assays for cathepsin K were carried out with human and rat recombinant enzyme. Assays for cathepsins S Et V were also carried out with human recombinant enzyme. Assays for human cathepsins B. H. and L were carried out with enzyme, purchased from Athens Research and Technology, Inc., prepared from human liver tissue. […] A stock substrate solution of Cbz-Phe-Arg-AMC was prepared at a concentration of 50 mM in dimethyl sulfoxide. This substrate was diluted into the assay for a final substrate concentration of 10 μM in the rat cathepsin K, human cathepsin K, and human cathepsin B assays; a final substrate concentration of 5 μM in the human cathepsin L assay; and a final substrate concentration of 2 μM in the human cathepsin V assay.
All assays contained 10% dimethyl sulfoxide. […] All assays were conducted at 30° C. Product fluorescence (excitation at 360 nm; emission at 440 nm, (except cathepsin H which used excitation at 340 nm; emission at 420 nm)) was monitored with a PerSeptive Biosystems Cytofluor II fluorescence plate reader. Product progress curves were generated over 2.3 h monitoring the formation of 7-amino-4-methylcoumarin product (or β-naphthalamide for cathepsin H).
Two liters of Spodoptera frugiperda (Sf-9) cells (ATCC) were grown in Grace's Supplemented medium (Life Technologies) supplemented with 2 g/L glucose, 10% a fetal bovine serum (HyClone) and 0.10% pluronic F-68 (Life Technologies). […] The cells continued to grow for 72 h post-infection, before the virus was harvested by centrifugation at 1400× g for 30 min.
One and one-half liters of Trichoplusia ni (T. ni) High Five (TM) cells [JRH Biosciences, Woodland, Calif. […] Media were separated from cells at a rate of 1 L/min using the Centritech 100 (TM) continuous-flow centrifuge (DuPont) operating at 200× g.
Protein Purification: Media (human and rat) were filtered through a Whatman 3 filter, and then loaded onto a 25 mL Poros HS II (26 mm×47 mm) cation exchange column equilibrated in 25 mM sodium acetate at pH 5.5 (equilibration buffer). The column was washed until the absorbance reached the baseline value, and then the protein was eluted with a linear gradient from 0-2 M sodium chloride in the equilibration buffer. Column fractions were analyzed by SDS-PAGE, N-terminal sequencing, and mass spectrometry. Fractions containing the proform of cathepsin K were pooled and frozen at −80° C. The proform was concentrated in an Amicon Centriprep 10 and fractionated with a Superdex 75 column (26 mm×600 mm, Pharmacia) equilibrated in 400 mM sodium chloride, 25 mM sodium acetate at pH 5.5.
Cathepsin K Activation: The proform of cathepsin K was converted to mature cathepsin K by brief exposure to pH 4 in the presence of 5 mM L-cysteine. Typically, 5 mM L-cysteine was added to 10 mL of approximately 1 mg/mL procathepsin K. One mL of this solution was diluted ten-fold into 450 mM sodium acetate at pH 4.0 containing 5 mM L-cysteine. This solution was reacted at 23° C. for 2 min before neutralization with 2 mL 1.8 M sodium acetate at pH 6.0. The neutralized sample was added to the remaining 9 mL of procathepsin K. The mixture was incubated at 4° C. for 2-3 days. The activated cathepsin K was chromatographed on a Poros HS II column as described above.
Potential inhibitors were evaluated using the progress curve method. Assays were carried out in the presence of variable concentrations of test compound. Reactions were initiated by addition of buffered solutions of inhibitor and substrate to enzyme. Data analysis was conducted according to one of two procedures depending on the appearance of the progress curves in the presence of inhibitors. […] Ki values were calculated from IC50 values using equation 2 assuming a competitive model. [formula]

Compound	Ki [nM]
CCCC[C@H](NC(=O)O[C@H](Cc1nnc(-c2ccccc2)o1)C(C)(C)CC)C(=O)C(=O)N[C@H](C)c1ccccc1 [Example 8, (1R)-2,2-dimethyl-1-[(5-phenyl-1,3,4-oxadiazol-2-yl)methyl]butyl (1S)-1-(oxo{[(1R)-1-phenylethyl]amino}acetyl)pentylcarbamate]	1 to 100
CCCC[C@H](NC(=O)O[C@@H](Cc1nnc(-c2ccccc2)o1)C(C)(C)CC)C(=O)C(=O)N[C@H](C)c1ccccc1 [Example 9, (1S)-2,2-dimethyl-1-[(5-phenyl-1,3,4-oxadiazol-2-yl)methyl]butyl(1S)-1-(oxo{[(1R)-1-phenylethyl]amino}acetyl)pentylcarbamate]	100 to 10000
CCCC[C@H](NC(=O)O[C@H](Cc1nnc(-c2ccccc2)o1)C(C)C)C(=O)C(=O)N[C@H](C)c1ccccc1 [Example 10, (1R)-2-methyl-1-[(5-phenyl-1,3,4-oxadiazol-2-yl)methyl]propyl(1S)-1-(oxo{[(1R)-1-phenylethyl]amino}acetyl)pentylcarbamate]	0.01 to 1
CCCC[C@H](NC(=O)O[C@@H](Cc1nnc(-c2ccccc2)o1)C(C)C)C(=O)C(=O)N[C@H](C)c1ccccc1 [Example 11, (1S)-2-methyl-1-[(5-phenyl-1,3,4-oxadiazol-2-yl)methyl]propyl(1S)-1-(oxo{[(1R)-1-phenylethyl]amino}acetyl)pentylcarbamate]	100 to 10000
CCCC[C@H](NC(=O)O[C@H](Cn1cnc(-c2ccccc2)c1)C(C)(C)C)C(=O)C(=O)N[C@H](C)c1ccccc1 [Example 12, (1S)-2,2-dimethyl-1-[(4-phenyl-1H-imidazol-1-yl)methyl]propyl(1S)-1-(oxo{[(1R)-1-phenylethyl]amino}acetyl)pentylcarbamate]	0.01 to 1
CCCC[C@H](NC(=O)O[C@@H](Cn1cnc(-c2ccccc2)c1)C(C)(C)C)C(=O)C(=O)N[C@H](C)c1ccccc1 [Example 13, (1R)-2,2-dimethyl-1-[(4-phenyl-1H-imidazol-1-yl)methyl]propyl(1S)-1-(oxo{[(1R)-1-phenylethyl]amino}acetyl)pentylcarbamate]	100 to 10000
CCCC[C@H](NC(=O)O[C@H](Cc1nnc(-c2ccccc2)o1)C(C)(C)C)C(=O)C(=O)N[C@H](C)c1ccccc1 [Example 15, (1R)-2,2-dimethyl-1-[(5-phenyl-1,3,4-oxadiazol-2-yl)methyl]propyl(1S)-1-(oxo{[(1R)-1-phenylethyl]amino}acetyl)pentylcarbamate]	0.01 to 1
CCCC[C@H](NC(=O)O[C@@H](Cc1nnc(-c2ccccc2)o1)C(C)(C)C)C(=O)C(=O)N[C@H](C)c1ccccc1 [Example 16, (1S)-2,2-dimethyl-1-[(5-phenyl-1,3,4-oxadiazol-2-yl)methyl]propyl (1S)-1-(oxo{[(1R)-1-phenylethyl]amino}acetyl)pentylcarbamate]	100 to 10000
CCCC[C@H](NC(=O)O[C@H](Cc1nnc(-c2ccc(F)cc2)o1)C(C)(C)C)C(=O)C(=O)N[C@H](C)c1ccccc1 [Example 19, (1R)-1-{[5-(4-fluorophenyl)-1,3,4-oxadiazol-2-yl]methyl}-2,2-dimethylpropyl(1S)-1-(oxo{[(1R)-1-phenylethyl]amino}acetyl)pentylcarbamate]	0.01 to 1
CCCC[C@H](NC(=O)O[C@@H](Cc1nnc(-c2ccc(F)cc2)o1)C(C)(C)C)C(=O)C(=O)N[C@H](C)c1ccccc1 [Example 20, (1S)-1-{[5-(4-fluorophenyl)-1,3,4-oxadiazol-2-yl]methyl}-2,2-dimethylpropyl(1S)-1-(oxo{[(1R)-1-phenylethyl]amino}acetyl)pentylcarbamate]	100 to 10000
CCCC[C@H](NC(=O)O[C@H](Cc1nnc(-c2ccc(F)cc2)o1)C(C)(C)C)C(=O)C(=O)N[C@H]1CCCNC1=O [Example 25]	0.01 to 1

Next, values leading:

Ki [nM]	Compound
1 to 100	CCCC[C@H](NC(=O)O[C@@H](Cn1ccc(-c2ccc(C(F)(F)F)cc2)n1)C(C)(C)C)C(=O)C(=O)Nc1ccn[nH]1 [Example 2, (1R)-2,2-dimethyl-1-({3-[4-(trifluoromethyl)phenyl]-1H-pyrazol-1-yl}methyl)propyl(1S)-1-[oxo(1H-pyrazol-3-ylamino)acetyl]pentylcarbamate]
0.01 to 1	CCCC[C@H](NC(=O)O[C@H](Cc1nnc(-c2ccc(C(F)(F)F)cc2)o1)C(C)(C)C)C(=O)C(=O)Nc1ccn[nH]1 [Example 3]
1 to 100	CCCC[C@H](NC(=O)O[C@H](Cc1nnc(-c2ccc(F)cc2)o1)C(C)(C)C)C(=O)C(=O)NCc1cccnc1 [Example 4, (1R)-1-{[5-(4-fluorophenyl)-1,3,4-oxadiazol-2-yl]methyl}-2,2-dimethylpropyl(1S)-1-{oxo[(3-pyridinylmethyl)amino]acetyl}pentylcarbamate]
1 to 100	CCCC[C@H](NC(=O)O[C@H](Cn1ccc(-c2ccc(C(F)(F)F)cc2)n1)C(C)(C)C)C(=O)C(=O)Nc1ccccn1 [Example 5, (1S)-2,2-dimethyl-1-({3-[4-(trifluoromethyl)phenyl]-1H-pyrazol-1-yl}methyl)propyl(1S)-1-[oxo(2-pyridinylamino)acetyl]pentylcarbamate]
0.01 to 1	CCCC[C@H](NC(=O)O[C@H](Cn1cnc(-c2ccc(F)cc2)c1)C(C)(C)C)C(=O)C(=O)N[C@H](C)c1ccccc1 [Example 6, (1S)-1-{[4-(4-fluorophenyl)-1H-imidazol-1-yl]methyl}-2,2-dimethylpropyl (1S)-1-(oxo{[(1R)-1-phenylethyl]amino}acetyl)pentylcarbamate]
0.01 to 1	CCCC[C@H](NC(=O)O[C@H](Cn1cc(-c2ccc(C(F)(F)F)cc2)cn1)C(C)(C)C)C(=O)C(=O)Nc1ccn[nH]1 [Example 14, (1S)-2,2-dimethyl-1-({4-[4-(trifluoromethyl)phenyl]-1H-pyrazol-1-yl}methyl)propyl(1S)-1-[oxo(1H-pyrazol-5-ylamino)acetyl]pentylcarbamate]
0.01 to 1	CCCC[C@H](NC(=O)O[C@H](Cc1nnc(-c2ccc(C(F)(F)F)cc2)o1)C(C)(C)C)C(=O)C(=O)N[C@H](C)c1ccccc1 [Example 17]
100 to 10000	CCCC[C@H](NC(=O)O[C@@H](Cc1nnc(-c2ccc(C(F)(F)F)cc2)o1)C(C)(C)C)C(=O)C(=O)N[C@H](C)c1ccccc1 [Example 18, (1S)-2,2-dimethyl-1-({5-[4-(trifluoromethyl)phenyl]-1,3,4-oxadiazol-2-yl}methyl)propyl(1S)-1-(oxo{[(1R)-1-phenylethyl]amino}acetyl)pentylcarbamate]
100 to 10000	CCCC[C@H](NC(=O)O[C@H](Cc1nnc(-c2ccc(F)cc2)o1)C(C)(C)C)C(=O)C(=O)Nc1ccccn1 [Example 21, (1R)-1-{[5-(4-fluorophenyl)-1,3,4-oxadiazol-2-yl]methyl}-2,2-dimethylpropyl(1S)-1-[oxo(2-pyridinylamino)acetyl]pentylcarbamate]
0.01 to 1	CCCC[C@H](NC(=O)O[C@H](Cc1nnc(-c2ccc(F)cc2)o1)C(C)(C)C)C(=O)C(=O)Nc1ccn[nH]1 [Example 23, (1R)-1-{[5-(4-fluorophenyl)-1,3,4-oxadiazol-2-yl]methyl}-2,2-dimethylpropyl(1S)-1-[oxo(1H-pyrazol-5-ylamino)acetyl]pentylcarbamate]
1 to 100	CCCC[C@H](NC(=O)O[C@H](Cc1nnc(-c2ccc(F)cc2)o1)C(C)(C)C)C(=O)C(=O)NCc1ccncc1 [Example 24, (1R)-1-{[5-(4-fluorophenyl)-1,3,4-oxadiazol-2-yl]methyl}-2,2-dimethylpropyl(1S)-1-{oxo[(4-pyridinylmethyl)amino]acetyl}pentylcarbamate]

— US20050107616A1, “Alpha-ketoamide derivatives as cathepsin k inhibitors” (priority 2001, published 2005)
